Laboratory results as given in article doi:10.1101/2025.01.28.635346v1 (bioRxiv, 2025).
Bridge positions count the residues as written; N and C are the ends. Side chains are listed from the residue outwards. Peptide text beside a SMILES is read from it. * marks the point of attachment. Butanoyl(4-(4-I-phenyl)) = O=C(CCCc1ccc(I)cc1)*; PEG2 = NCCOCCOCCC(=O)O

Experiments:
[1] = Pharmacokinetics in female Balb/c mice; assay type: in vivo, mouse
HTR2B = HTR2B (Homo sapiens, UniProt P41595); assay: Safetyscan47 GPCR Calcium Flux, Agonist; assay type: cell-based
Sequence of HTR2B (P41595 whole entry): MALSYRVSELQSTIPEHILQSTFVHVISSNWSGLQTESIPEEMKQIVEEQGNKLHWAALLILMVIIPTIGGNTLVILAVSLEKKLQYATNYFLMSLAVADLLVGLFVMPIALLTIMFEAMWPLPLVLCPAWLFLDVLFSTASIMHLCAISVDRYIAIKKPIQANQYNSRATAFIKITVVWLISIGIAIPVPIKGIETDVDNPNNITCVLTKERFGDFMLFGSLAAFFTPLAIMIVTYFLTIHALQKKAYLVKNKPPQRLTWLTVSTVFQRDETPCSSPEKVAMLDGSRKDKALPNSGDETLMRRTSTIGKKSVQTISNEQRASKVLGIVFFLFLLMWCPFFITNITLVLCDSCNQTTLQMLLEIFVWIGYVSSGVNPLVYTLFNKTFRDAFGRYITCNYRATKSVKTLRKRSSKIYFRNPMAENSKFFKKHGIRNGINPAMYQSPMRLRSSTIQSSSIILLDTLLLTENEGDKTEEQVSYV

GR = target: T1, GR (Homo sapiens, UniProt P04150); assay: Safetyscan47 NHR Protein Interaction, Antagonist; assay type: cell-based
T1 sequence (P04150 1-777): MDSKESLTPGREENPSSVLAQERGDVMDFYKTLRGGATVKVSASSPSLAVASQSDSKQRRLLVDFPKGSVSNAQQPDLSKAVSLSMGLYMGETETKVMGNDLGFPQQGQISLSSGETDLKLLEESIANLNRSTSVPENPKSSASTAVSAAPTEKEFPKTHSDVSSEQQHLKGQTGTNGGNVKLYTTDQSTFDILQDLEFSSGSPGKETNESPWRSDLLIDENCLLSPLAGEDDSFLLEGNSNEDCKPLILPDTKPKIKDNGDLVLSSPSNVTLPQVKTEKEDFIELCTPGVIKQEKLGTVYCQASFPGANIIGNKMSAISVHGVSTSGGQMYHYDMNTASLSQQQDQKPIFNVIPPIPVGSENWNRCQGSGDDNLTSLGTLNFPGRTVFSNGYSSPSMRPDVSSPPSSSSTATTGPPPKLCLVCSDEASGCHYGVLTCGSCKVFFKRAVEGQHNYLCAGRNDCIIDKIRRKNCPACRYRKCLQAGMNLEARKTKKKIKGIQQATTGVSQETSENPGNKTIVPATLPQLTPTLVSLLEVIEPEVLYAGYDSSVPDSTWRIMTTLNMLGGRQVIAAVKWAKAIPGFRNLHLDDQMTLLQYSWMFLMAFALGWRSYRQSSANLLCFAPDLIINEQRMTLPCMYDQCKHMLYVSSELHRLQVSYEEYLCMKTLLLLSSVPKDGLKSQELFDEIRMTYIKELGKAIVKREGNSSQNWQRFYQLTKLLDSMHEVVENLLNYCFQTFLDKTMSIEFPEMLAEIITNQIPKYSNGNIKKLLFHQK

COX2 = target: T2, COX2 (Homo sapiens, UniProt P35354); assay: Safetyscan47 Non-Kinase Enzymes Enzymatic, Inhibitor; assay type: biochemical
T2 sequence (P35354 18-604): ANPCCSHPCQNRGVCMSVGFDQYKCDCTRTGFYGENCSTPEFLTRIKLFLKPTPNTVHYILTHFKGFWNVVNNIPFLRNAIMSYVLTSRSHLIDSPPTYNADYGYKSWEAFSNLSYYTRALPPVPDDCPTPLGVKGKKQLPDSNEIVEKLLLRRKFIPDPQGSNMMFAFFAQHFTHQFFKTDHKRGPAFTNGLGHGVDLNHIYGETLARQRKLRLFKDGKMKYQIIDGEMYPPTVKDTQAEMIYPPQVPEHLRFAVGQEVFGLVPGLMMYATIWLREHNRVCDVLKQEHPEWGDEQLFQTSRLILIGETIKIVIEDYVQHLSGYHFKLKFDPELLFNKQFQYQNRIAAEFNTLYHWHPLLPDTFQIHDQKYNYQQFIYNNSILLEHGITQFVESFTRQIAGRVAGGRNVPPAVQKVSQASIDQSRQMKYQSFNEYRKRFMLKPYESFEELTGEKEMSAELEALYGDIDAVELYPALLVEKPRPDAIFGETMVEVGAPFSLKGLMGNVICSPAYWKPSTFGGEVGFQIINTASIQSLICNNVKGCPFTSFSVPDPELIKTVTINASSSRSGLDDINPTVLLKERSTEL

[2] = Table S3B, IP 30 mg/kg, mouse, animal 2F001
[3] = Table S3B, IP 30 mg/kg, mouse, animal 2F002
[4] = Table S3B, IP 30 mg/kg, mouse, animal 2F003
[5] = Table S3B, IP 30 mg/kg, mouse, animal 2F004
[6] = Table S3B, IP 30 mg/kg, mouse, animal 2F005
[7] = Table S3B: IP 30 mg/kg, Mean N=5
[8] = Table S3D, IP 10 mg/kg, mouse, animal 1F001
[9] = Table S3D, IP 10 mg/kg, mouse, animal 1F002
[10] = Table S3D, IP 10 mg/kg, mouse, animal 1F003
[11] = Table S3D, IP 10 mg/kg, mouse, animal 1F004
[12] = Table S3D, IP 10 mg/kg, mouse, animal 1F005
[13] = Table S3D, SC 10 mg/kg, mouse, animal 2F001
[14] = Table S3D, SC 10 mg/kg, mouse, animal 2F002
[15] = Table S3D, SC 10 mg/kg, mouse, animal 2F003
[16] = Table S3D, SC 10 mg/kg, mouse, animal 2F004
[17] = Table S3D, SC 10 mg/kg, mouse, animal 2F005
[18] = female, Balb/c, mouse, plasma, ip, 10 mg/kg
[19] = female, Balb/c, mouse, plasma, ip, 30 mg/kg
[20] = female, Balb/c, mouse, plasma, sc, 10 mg/kg

Question: Which results are given for `CC[C@H](C)[C@H](NC(=O)[C@H](CC(C)C)NC(=O)[C@H](CC(=O)O)NC(=O)CNC(=O)[C@H](CCCNC(=N)N)NC(=O)[C@@H](NC(=O)[C@H](Cc1ccccc1)NC(=O)[C@H](Cc1ccc(O)cc1)NC(=O)[C@@H]1CCC(=O)NCC(=O)NCC(=O)N[C@@H](CCCNC(=N)N)C(=O)NCC(=O)N[C@@H](Cc2c[nH]cn2)C(=O)N[C@@H](C(C)C)C(=O)N2CCC[C@H]2C(=O)N1)C(C)C)C(=O)N[C@@H](CO)C(=O)N[C@@H](Cc1ccccc1)C(=O)N[C@@H](Cc1ccc(O)cc1)C(=O)N[C@@H](CCCCNC(=O)CCOCCOCCNC(=O)CCCc1ccc(I)cc1)C(=O)O` [lassotide 47] (GGRGHVPEYFVRGDLISFYK([PEG2-Butanoyl(4-(4-I-phenyl))])-OH; lactam N-8)?
Answer: improvement in t1/2 vs 36 ([1]; 30 mg/kg IP, mice): 9 fold; increase in AUC vs 36 ([1]; 30 mg/kg IP, mice): 39 fold; Cl ([1]; Mouse, 30 mg/kg IP, mean): 0.3 mL/min/kg; Vz ([1]; Mouse, 30 mg/kg IP, mean): 0.1 L/kg; AUClast [1, 2]: 1750000; CL/F [1, 2]: 0.271; Cmax [1, 2]: 167000; Tmax [1, 2]: 2.0; Vz/F [1, 2]: 118; t1/2 [1, 2]: 5.0; AUClast [1, 3]: 1710000; CL/F [1, 3]: 0.278; Cmax [1, 3]: 182000; Tmax [1, 3]: 2.0; Vz/F [1, 3]: 128; t1/2 [1, 3]: 5.3; AUClast [1, 4]: 1270000; CL/F [1, 4]: 0.356; Cmax [1, 4]: 96500; Tmax [1, 4]: 4.0; Vz/F [1, 4]: 215; t1/2 [1, 4]: 7.0; AUClast [1, 5]: 1810000; CL/F [1, 5]: 0.266; Cmax [1, 5]: 151000; Tmax [1, 5]: 2.0; Vz/F [1, 5]: 109; t1/2 [1, 5]: 4.7; AUClast [1, 6]: 2150000; CL/F [1, 6]: 0.219; Cmax [1, 6]: 231000; Tmax [1, 6]: 4.0; Vz/F [1, 6]: 105; t1/2 [1, 6]: 5.5; Vz/F [1, 7]: 135; t1/2 [1, 7]: 5.52 h; AUCINF [1, 8]: 531 µg·h/mL; AUClast [1, 8]: 517000 ng·h/mL; CL/F [1, 8]: 0.314 mL/min/kg; Cmax [1, 8]: 74800 ng/mL; Tmax [1, 8]: 2.0 h; Vz/F [1, 8]: 122 mL/kg; t1/2 [1, 8]: 4.5 h; AUCINF [1, 9]: 482 µg·h/mL; AUClast [1, 9]: 468000 ng·h/mL; CL/F [1, 9]: 0.346 mL/min/kg; Cmax [1, 9]: 75600 ng/mL; Tmax [1, 9]: 2.0 h; Vz/F [1, 9]: 128 mL/kg; t1/2 [1, 9]: 4.3 h; AUCINF [1, 10]: 604 µg·h/mL; AUClast [1, 10]: 587000 ng·h/mL; CL/F [1, 10]: 0.276 mL/min/kg; Cmax [1, 10]: 57500 ng/mL; Tmax [1, 10]: 2.0 h; Vz/F [1, 10]: 108 mL/kg; t1/2 [1, 10]: 4.5 h; AUCINF [1, 11]: 628 µg·h/mL; AUClast [1, 11]: 603000 ng·h/mL; CL/F [1, 11]: 0.265 mL/min/kg; Cmax [1, 11]: 56300 ng/mL; Tmax [1, 11]: 2.0 h; Vz/F [1, 11]: 112 mL/kg; t1/2 [1, 11]: 4.9 h; AUCINF [1, 12]: 640 µg·h/mL; AUClast [1, 12]: 631000 ng·h/mL; CL/F [1, 12]: 0.260 mL/min/kg; Cmax [1, 12]: 68400 ng/mL; Tmax [1, 12]: 1.0 h; Vz/F [1, 12]: 91.9 mL/kg; t1/2 [1, 12]: 4.1 h; AUCINF [1, 13]: 546 µg·h/mL; AUClast [1, 13]: 528000 ng·h/mL; CL/F [1, 13]: 0.305 mL/min/kg; Cmax [1, 13]: 45700 ng/mL; Tmax [1, 13]: 4.0 h; Vz/F [1, 13]: 115 mL/kg; t1/2 [1, 13]: 4.3 h; AUCINF [1, 14]: 469 µg·h/mL; AUClast [1, 14]: 455000 ng·h/mL; CL/F [1, 14]: 0.355 mL/min/kg; Cmax [1, 14]: 44700 ng/mL; Tmax [1, 14]: 4.0 h; Vz/F [1, 14]: 144 mL/kg; t1/2 [1, 14]: 4.7 h; AUCINF [1, 15]: 596 µg·h/mL; AUClast [1, 15]: 567000 ng·h/mL; CL/F [1, 15]: 0.280 mL/min/kg; Cmax [1, 15]: 56800 ng/mL; Tmax [1, 15]: 4.0 h; Vz/F [1, 15]: 123 mL/kg; t1/2 [1, 15]: 5.1 h; AUCINF [1, 16]: 635 µg·h/mL; AUClast [1, 16]: 609000 ng·h/mL; CL/F [1, 16]: 0.262 mL/min/kg; Cmax [1, 16]: 57900 ng/mL; Tmax [1, 16]: 4.0 h; Vz/F [1, 16]: 114 mL/kg; t1/2 [1, 16]: 5.0 h; AUCINF [1, 17]: 558 µg·h/mL; AUClast [1, 17]: 541000 ng·h/mL; CL/F [1, 17]: 0.299 mL/min/kg; Cmax [1, 17]: 50000 ng/mL; Tmax [1, 17]: 4.0 h; Vz/F [1, 17]: 120 mL/kg; t1/2 [1, 17]: 4.7 h; t1/2 ([1]; Table S3D: IP 10 mg/kg, Mean N=5): 4.46 h; AUC(0-inf) [1, 18]: 577 µg·h/mL; AUC(0-t) [1, 18]: 561 µg·h/mL; CL/F [1, 18]: 0.292 mL/min/kg; Cmax [1, 18]: 66500 ng/mL; Tmax [1, 18]: 1.8 h; Vd/F [1, 18]: 0.113 L/kg; half-life [1, 18]: 4.5 h; AUC(0-t) [1, 19]: 1740 µg·h/mL; CL/F [1, 19]: 0.278 mL/min/kg; Cmax [1, 19]: 166000 ng/mL; Tmax [1, 19]: 2.8 h; AUC(0-inf) [1, 20]: 561 µg·h/mL; AUC(0-t) [1, 20]: 540 µg·h/mL; CL/F [1, 20]: 0.3 mL/min/kg; Cmax [1, 20]: 51000 ng/mL; Tmax [1, 20]: 4 h; Vd/F [1, 20]: 0.123 L/kg; half-life [1, 20]: 4.75 h; EC50 (HTR2B): > 45 µM; Emax (HTR2B; read-out: Max Response): 0%; IC50 (GR): > 45 µM; Emax (GR; read-out: Max Response): 0%; IC50 (COX2): > 45 µM; Emax (COX2; read-out: Max Response): 18.7%
